In patent publication US20200375691A1, “PERACETIC ACID VAPOR STERILIZATION SYSTEM” (Medivators Inc., priority 2018, published 2020):

Assays:
[1] = test system: Geobacillus stearothermophilus; experiment: Colonoscope sterilization in 60 liter stainless steel chamber; format: cell-based; conditions: colonoscope CFQ-160 L, bubbler 4 L/min, circulation approximately 12 L/min, 60 minutes, 6-7 log inoculum
Method: A 60 liter stainless steel chamber was used to determine the effect of chamber size on the efficacy of the bubbler system when the chamber size and material were changed. The flow rate used was 4 L/min for a bubbler and approximately 12 L/min for circulation and the sterilization time was for 60 minutes. Twenty-two inoculated surfaces were studied with the colonoscope (CFQ-160 L). Each scope was inoculated on both the exterior and interior of the lumens with Geobacillus stearothermophilus suspended in serum or saline solution at a target concentration of microorganisms of 6-7 log for each run.

[2] = test system: biological indicators (BIs); experiment: Heated 90 cm bubbler runs, biological indicators in beakers, Tyvek and process challenge devices; format: cell-based
Method: In this example embodiment of bubbler 430 and system 420, the Bubbler System was modified to accept a 50 mm outside diameter by 90 cm long glass tube (5 mm wall thickness) attached to a 417-liter REVOX system. During all experiments, 250 mL of REVOX PA liquid was measured by graduated cylinder and poured into the 90 cm Bubbler. The Bubbler System was connected to the 417-liter REVOX sterilization chamber referred to as an improved bubbler vessel configuration. Air was drawn into bubbler 430 using only the force of the vacuum within sterilization chamber. A simple on-off valve was used to control the flow of air through the bubbler, allowing for “blocks” to be created in a similar manner to a normal REVOX cycle. In several cases a flow meter and/or infrared vapor detector was used to monitor the output of the Bubbler. In all cases, unused functions of the modified Revox Sterilization chamber/system were turned off (e.g. Dehumidification Hold was always set to 0) or were disabled (e.g. scope flow valve power was physically unplugged).
(§1) An assortment of process challenge devices (PCDs) were procured as a rough gauge to see what modes of sterilization are possible with the current bubbler 430 setup. These devices included simple Tyvek bags containing BIs, a syringe based PCD which contained a BI, a HF2000 Hemofilter cut to allow a BI to be inserted into the fiber mesh, and an artificial bone matrix provided by the REVOX team. Additionally, an Olympus TJF160 duodenoscope was inoculated with 6-log of bacteria on the exterior surface and within the scope lumens and was exposed to a Bubbler cycle with no hookups. This scope was used to assess penetration of sterilant down fine lumens.
(§2) The difference between heated and non-heated bubbler systems is the resulting humidity present in the chamber during the sterilization cycles. The humidity level on Cycle 250, as an example, exceeded 100% relative humidity. Maximum humidity levels were recorded by visual observation. The importance of humidity was again shown in Cycle 251 where humidity levels never exceeded 60% while testing a rapid, multi block cycle. […] Cycle 252 was used to test the effect of a single block run with a longer period of hold. […] Cycle 253 tested the penetration of Bubbler created PAA vapor into the long lumens of an Olympus TJF-160 duodenoscope. The scope surface, elevator wire channel, air/water channel, and suction biopsy channel were each inoculated with 6-logs of Geobacillus stearothermophilus spores. No hookups were used to pass PAA vapor into the lumens.
Cycle 254 tested a single 15-minute contact time on BIs in the chamber and within a Tyvek pouch. With pump down and ventilation, the total run time was 22 minutes. […] Additionally, between 5 and 10 additional minutes could be cut out of the cycle to achieve the same results. This is based on the rate at which the chemical indicators bleach out within the chamber, which tends to happen less than 5 minutes after PAA exposure begins. Within this cycle as well, two different types of Cantel Medical PAA chemical indicators were used. No appreciable difference was observed between the two varieties of CIs. Cycles 255 and 256 provide insight into the utility of the large scale Bubbler technology. […] The results of the Hemofilter can be explained by the complexity of filter membrane and its massive surface area. More “blocks” or injections of PAA vapor are likely needed to saturate the filter membrane with PAA vapor. The bone matrix, however, is readily porous and should be easily sterilized under these conditions. […] It is hypothesized that the metal is causing a breakdown of the PAA vapor as it passes through the bone matrix.

[3] = Evacuation of sterilant after sterilization: PAA in chamber and residuals on scope; conditions: after 30 minute ventilation
Source text: To evacuate the sterilant out after the sterilization process, the experiment utilized three additional parts to the system: • 1. Circulating fan inside the chamber lid to generate turbulence to promote the evacuation process. • 2. Air pump at the outlet vent to help remove the sterilant out of the system. • 3. Medical air inlet to dilute the concentration of PAA for faster evacuating process.
The process included a flow of medical air in at 15 L/min (flow through both chamber and lumen of scope) and a flow of air out of the chamber (generated by the air pump) and a circulation flow inside the chamber (generated by the fan). The equivalent of flow through the chamber allowed the pressure inside the chamber to be closer to atmospheric pressure to reduce scope damage and allow easier design of the chamber.

[4] = limit that the residual is compared with; cited from earlier work
[5] = test system: Geobacillus stearothermophilus spores; experiment: Heated bubbler Cycle 253, inoculated Olympus TJF-160 duodenoscope without hookups; format: cell-based; conditions: Cycle 253: contact time 1200, 3 inj, 6-logs of spores, no hookups
Source text: as §1
as §2, with “The scope surface, elevator wire channel, air/water channel, and suction biopsy channel were each inoculated with 6-logs of Geobacillus stearothermophilus spores. No hookups were used to pass PAA vapor into the lumens.” left out

[6] = test system: Geobacillus stearothermophilus; experiment: Sterilization of inoculated flexible endoscopes with PAA vapor from a one liter glass bubbler; format: cell-based; conditions: 6-7 log inoculum, chamber at room temperature
Source text: A one liter glass bubbler as the vapor system was used to test three different flexible endoscopes to determine the efficacy of the system against microorganisms as a function of size and architecture of endoscope.
The three endoscope types were chosen to meet the three primary conditions of flexible endoscopes: • Long endoscope: XSIF-100 • Complex channel system scope: CFQ-160L • Basic/small scope: BF-P40 and BF-P30
Each scope was inoculated on both the exterior and interior of the lumens with Geobacillus stearothermophilus suspended in serum or saline solution at a target concentration of microorganisms of 6-7 log for each run. The scope was then sealed inside a double Tyvek bag with a hookup adaptor. Each flexible endoscope was evaluated for a total of 22 inoculated surfaces to achieve a greater than 95% confidence level.
The test conditions for each scope are described below: • For CF-Q160L endoscope: • a. Bubbler flow rate: 4000 mL/min • b. Circulation Flow Rate: 12000 mL/min • c. Contact Time: 60 min
For XSIF-100 endoscope: • a. Bubbler flow rate: […] • b. Circulation Flow Rate: 11000 mL/min • c. Contact Time: 15 min and 30 min
For BF-P40 and BF-P30 endoscopes: • a. Bubbler flow rate: 4000 mL/min • b. Circulation Flow Rate: 11000 mL/min • c. Contact Time: 30 min
The chamber for all the runs was at room temperature.

[7] = test system: Mesa brand biological indicator (BI); experiment: System 220 bubbler flow through elevator wire channel, biological indicator kill; format: cell-based
Source text: In this embodiment, vapor system 220 was substantially modified to allow PAA vapor to flow from the bubbler 231 into an endoscope's elevator wire channel 270. To generate flow, a duodenoscope was placed in a poly tray (no terminal packaging was used) and the elevator wire channel of the endoscope was connected to the flow path. The vacuum chamber 240 was evacuated to 20 torr (±5 torr) so as to create enough pressure differential to flow PAA vapor 232A without any additional mechanical assistance, such as a pump. The flow rate was estimated to be about 150 ml per minute. Potential system leaks were assessed by closing the On/Off valve of the bubbler, isolating the chamber in manual control mode, and holding for 5 minutes. Chamber leak rate was determined to be less than 0.5 torr per five minutes. Depending on the application and the size of the bubbler vessel, PAA flow rate was to be controlled via the needle valve. In this illustrated embodiment, needle valve 252 was in its maximum flow position during all experiments, indicating needle valve 252 was not needed. Flow of PAA vapor to the distal tip of the scope was assured by affixing a PAA chemical indicator (CI) 280. Additional CIs were placed throughout the chamber to monitor for the presence of residual PAA presence, but these were optional and not critical to the operation of system 220. […]

[8] = Cycle 254: contact time 900 (15-minute), 1 inj, inj 5 torr
[9] = Cycle 255: contact time 1200, 3 inj, inj 5 torr
[10] = Cycle 256: contact time 3600, 2 inj, inj 1 torr

CC(=O)OO [PAA, peracetic acid]
survivors on 22 inoculated surfaces, scope and biological indicators [1]: no survivors
BI Results: BIs in Beakers (negative = kill) ([2]; Cycle 250: contact time 1200, 3 inj, inj 5 torr, post inj 500 torr, humidity exceeded 100%): complete kill
BI Results: BIs in Beakers ([2]; Cycle 251: contact time 60, 20 inj, inj 5 torr, humidity never exceeded 60%): No kill
BI Results: BIs in Beakers ([2]; Cycle 252: contact time 1800, 1 inj, inj 5 torr, humidity exceeded 100%): Kill was achieved
BI Results: BIs in Beakers [2, 8]: sterilized
BI Results: BIs in Tyvek [2, 8]: sterilized
BI Results: BIs in Syringe PCD [2, 9]: able to kill
BI Results: Bone Marrow BI [2, 9]: not able to kill
BI Results: Hemofilter PCD BI [2, 9]: not able to kill
BI Results: Bone Marrow PCD [2, 10]: not able to kill
BI Results: Hemofilter PCD [2, 10]: not able to kill
BI Results: Syringe PCD [2, 10]: able to kill
residuals on the scope [3]: 30 mg of PAA
worst case residual toxicity [4]: 7050 mg of PAA per total device
Scope Exterior [5]: full kill
Scope Lumens [5]: 1 log reduction
Result: survivors on 22 inoculated surfaces ([6]; Bronchoscope BF-P40 and BF-P30, bubbler 4000 mL/min, circulation 11000 mL/min, contact 30 min): All 22 inoculated surfaces have no
Result: survivors on 22 inoculated surfaces ([6]; Colonoscope CFQ-160L, bubbler 4000 mL/min, circulation 12000 mL/min, contact 60 min): All 22 inoculated surfaces have no
Result: survivors on 22 inoculated surfaces ([6]; Enteroscope XSIF-100, bubbler 4000 mL, circulation 11000 mL/min, contact 15 min and 30 min): All 22 inoculated surfaces have no
BI Results ([7]; contact time 600 seconds (Manual 1, Manual 2), chamber 20 torr, BI in vessel along flow path): alive
biological indicators ([7]; scope flow time 30 minutes or greater): dead
